Results taken from article PMC11219744, “Renal excretion of 1,2-dihydroxynaphthalene (DHN) in firefighting instructors after exposure to polycyclic aromatic hydrocarbons (PAHs) during live fire training” (Scientific Reports, 2024).
“And” between values parts separate entries of the source, which are not always exact repeats. Equal values may be shown once. Read-outs that look alike come from different tables or passages of the source.

What was measured:
[1] = upper margin of internal exposure typically found in smokers; cited from earlier work
[2] = Human biomonitoring: urinary excretion of PAH metabolites (GC–MS/MS, creatinine-normalised) in firefighting instructors before and after live fire training; settings: for Median increase from baseline (sample 2) to peak excretion: peak: sample 5 for 1-PYR, sample 4 otherwise; for concentration at 6 h: Concentration in urine, sampling 6, corresponding to end of shift
Protocol: All study participants (n = 6) were male firefighting instructors from Germany. […] Before the start of the study, all subjects declared that they were non-smokers. Tattoo bearers were excluded before the start of the study as tattoo ink can be a potential source of polycyclic aromatic hydrocarbons. The authors declare that this research was conducted in accordance with the relevant regulations, including the Declaration of Helsinki. All subjects gave written informed consent after being informed about the study by the investigator.
Exposure to combustion products took place in several training sessions that simulated live fire conditions by burning a defined number of uncoated chipboards in an overseas container. The container was located in a hall with exhaust air purification. […] In addition, all subjects wore long-sleeved undergarments under their turnout gear. Only laundered clothing and cleaned equipment (e.g. helmets, masks) were used. The donning and doffing of clothing and protective equipment took place only in a smoke-free, well-ventilated area. Immediately after taking off the firefighters' gloves after training, the participants put on nitrile gloves for further undressing. After removing the helmet, flash hood and SCBA face shield, the participants put on particle filtering half masks (FFP3) to remove contaminated turnout jackets and trousers. After a break for rehydration and cool down still wearing their undergarments, the participants went to shower. […] The interval between two consecutive training sessions for each subject was at least six days. […] In this way, each subject was biomonitored at each of the five training sessions. All additional (unscheduled) urinations between the predefined times were also collected in separate containers and pooled afterwards with the next scheduled sample. […] A total of 270 samples were to be collected using this procedure for all participants and five training sessions of each individual. Subjects completed a questionnaire for each sampling period to account for possible pre-exposure or concurrent exposure to PAHs from sources other than the fire simulation unit, such as occupational exposure to combustion products, exposure to tobacco smoke (active/passive) and barbecue activities, and consumption of smoked or charbroiled foods.
In brief, the analytes were extracted by liquid–liquid extraction with n-hexane after enzymatic hydrolysis of the urine samples with ß-glucuronidase/arylsulfatase (isolated from helix pomatia) and derivatised by silylation with N-trimethylsilyl-N-methyl trifluoroacetamide afterwards. […] All standards were obtained from LGC-Standards, Wesel, Germany.
DHN in urine was determined referring to a method described in detail by Klotz et al.[29]. […] External calibration with internal standardisation by an isotopically labelled analogue of the target compound was done by analysis of pool urine samples spiked with the glucuronides of DHN and D6-1,2-dihydroxynaphthalene (internal standard) before enzymatic hydrolysis. Both standards are not commercially available and were obtained as a gift from the Institute of Occupational, Social and Environmental Medicine at the University of Erlangen-Nuremberg (Germany). A detailed description of the synthesis of the compounds is given by[26]. […] Up to now, there is no external quality assessment scheme available for DHN.
Urinary creatinine was analysed in the Institute of Clinical Chemistry and Laboratory Medicine of University Medical Centre of the Johannes Gutenberg University Mainz using a photometrical assay based on the method of[30].

[3] = parameters: method as in PMID 32464238; settings: by scheduled sampling time; cited from earlier work
[4] = Time to peak and initial elimination half-life of the urinary biomarkers (first-order model, linear mixed effects); format: in vivo, human; settings: for half-life: male, human, in vivo, initial elimination half-life after peak excretion, urine, read-out: Estimated half-life, mean (converted); for Time to peak, median / Time to peak, range: urinary excretion, time after onset of exposure
Excerpt: The initial half-life of each biomarker was estimated using statistical methods described previously[6],[32]. In short, we estimated the first-order elimination rate constant λ based on the model in Eq. (1):1 C=C0+B·e^λ·t+∈
Here, C is the creatinine-adjusted concentration in urine after the uptake phase, C0 is the baseline concentration before training, B is the difference from peak to baseline concentration, t is the time since peak concentration, and ϵ is the error term. […] Using package nlme[33] for the statistical environment R[34],[35], the model was fitted as a linear mixed effects model for the log concentration difference to baseline ln(C–C0) as the outcome. The model was fitted simultaneously for all data and included fixed effects for biomarker, time since peak, and their interaction term. It used random slopes for time since peak and random intercepts for […]. Errors were assumed to be autocorrelated according to an AR(1) process.

[5] = cited from earlier work
[6] = sampling 1, morning urine on training day before exposure (mean −4.2 h from start of exposure), n = 30
[7] = sampling 1, morning urine on training day before exposure, n = 30
[8] = sampling 2, before training (mean −0.4 h), n = 28
[9] = sampling 2, before training, n = 28
[10] = sampling 3, at the end of the training session (mean 2.0 h after start of exposure), n = 26
[11] = sampling 3, at the end of the training session, n = 26
[12] = sampling 4, 1 h after the end of training (mean 3.0 h after start of exposure), n = 25
[13] = sampling 4, 1 h after the end of training, n = 25
[14] = sampling 5, 3 h after the end of training (mean 5.2 h after start of exposure), n = 22
[15] = sampling 5, 3 h after the end of training, n = 22
[16] = sampling 6, 6 h after the end of training (mean 8.1 h after start of exposure), n = 23
[17] = sampling 6, 6 h after the end of training, n = 23
[18] = sampling 7, 9 h after the end of training (mean […] after start of exposure), n = 27
[19] = sampling 7, 9 h after the end of training, n = 27
[20] = sampling 8, right before bedtime (mean 12.7 h after start of exposure), n = 27
[21] = sampling 8, right before bedtime, n = 27
[22] = sampling 9, morning urine the next day, 18 h after training (mean 20.1 h after start of exposure), n = 29
[23] = sampling 9, morning urine the next day, n = 29
[24] = 58 urine samples before onset of exposure, not creatinine-normalised

## Oc1cccc2ccccc12 [1-NAP, 1-hydroxynaphthalene]
[1]
  95th percentile of urinary concentration in smokers: 32.8 µg/g crea.
[2]; in vivo
  Increase in concentration from before exposure up to the maximum of excretion, factor: 40
  Median increase in morning urine after exposure (sampling 9) vs. before (sampling 1): 3.9 fold
[2]
  Median increase from baseline (sample 2) to peak excretion: 36 fold
[3]
  Time of peak excretion after the end of the training session: 1 h

## Oc1ccc2ccc3cccc4ccc1c2c34 [1-PYR, 1-hydroxypyrene]
[4]
  half-life: 7.7 h
  Time to peak, median: 5.3 h
  Time to peak, range: 2.5 to 13.9 h
[2]; male, human, in vivo, 18 h
  Median increase in morning urine after exposure (sampling 9) vs. before (sampling 1): 2.8 fold
[2]
  Median increase from baseline (sample 2) to peak excretion: 7.9 fold
[2]; pre exposure samplings
  Maximum excretion pre exposure: 0.22 µg/g creatinine
[2]; [6]
  Concentration in urine, median: 0.06 µg/g creatinine
[2]; [7]
  Concentration in urine, IQR: 0.04–0.08 µg/g creatinine
  Concentration in urine, range: 0.03–0.15 µg/g creatinine
[2]; [8]
  Concentration in urine, median: 0.05 µg/g creatinine
[2]; [9]
  Concentration in urine, IQR: 0.03–0.06 µg/g creatinine
[2]; [10]
  Concentration in urine, median: 0.06 µg/g creatinine
[2]; [11]
  Concentration in urine, IQR: 0.04–0.08 µg/g creatinine
[2]; [12]
  Concentration in urine, median: 0.20 µg/g creatinine
[2]; [13]
  Concentration in urine, IQR: 0.14–0.31 µg/g creatinine
  Concentration in urine, range: 0.06–1.61 µg/g creatinine
[2]; [14]
  Concentration in urine, median: 0.40 µg/g creatinine
[2]; [15]
  Concentration in urine, IQR: 0.21–0.59 µg/g creatinine
  Concentration in urine, range: 0.16–1.88 µg/g creatinine
[2]; [16]
  Concentration in urine, median: 0.29 µg/g creatinine
[2]; [17]
  Concentration in urine, IQR: 0.19–0.42 µg/g creatinine
  Concentration in urine, range: 0.10–1.93 µg/g creatinine
[2]; [18]
  Concentration in urine, median: 0.25 µg/g creatinine
[2]; [19]
  Concentration in urine, IQR: 0.16–0.30 µg/g creatinine
  Concentration in urine, range: 0.08–1.56 µg/g creatinine
[2]; [20]
  Concentration in urine, median: 0.21 µg/g creatinine
[2]; [21]
  Concentration in urine, IQR: 0.12–0.33 µg/g creatinine
  Concentration in urine, range: 0.06–1.06 µg/g creatinine
[2]; [22]
  Concentration in urine, median: 0.17 µg/g creatinine
[2]; [23]
  Concentration in urine, IQR: 0.10–0.25 µg/g creatinine
  Concentration in urine, range: 0.05–0.63 µg/g creatinine

## Oc1ccc2ccccc2c1O [DHN, 1,2-dihydroxynaphthalene]
[4]; by scheduled sampling time
  Time of peak excretion after the end of the training session: 1 h
[4]; from median maximum 134.15 µg/g crea., about 5 half-lives, monophasic elimination assumed
  Time required to reach pre exposure levels again: approximately 33 h
[4]
  half-life: 6.6 h
  Time to peak, median: 3.3 h
  Time to peak, range: 2.5 to 19.0 h
[2]; [24]
  Concentration in urine, median: 2.89 µg/L
  Concentration in urine, range: 0.6 to 19.4 µg/L
[2]; before training, samplings 1 and 2 together
  Baseline concentration in urine, total range: 0.9–10.2 µg/g crea. and 0.87–10.19 µg/g crea.
[2]; firefighters after live fire training, sampling 4, n = 6, Germany
  Urinary peak concentration, median (range): 246.7 (18.2–1084.2) µg/l
[2]; male, human, in vivo, 18 h
  Median increase in morning urine after exposure (sampling 9) vs. before (sampling 1): 12.9 fold
[2]; male, human, in vivo, median
  concentration at 6 h: 71.3 ng/mL
[2]; male, human, in vivo, range
  concentration at 6 h: 16.6 to 674 ng/mL
[2]
  Median increase from baseline (sample 2) to peak excretion: 41 fold
[2]; post exposure, sampling 4
  Individual maximum concentration in urine: 380.4 µg/g crea.
[2]; [6]
  Concentration in urine, median: 2.23 µg/g creatinine
[2]; [7]
  Concentration in urine, IQR: 1.43–4.18 µg/g creatinine
  Concentration in urine, range: 0.87–10.19 µg/g creatinine
[2]; [8]
  Concentration in urine, median: 3.3 µg/g creatinine and 3.32 µg/g creatinine
[2]; [9]
  Concentration in urine, IQR: 2.03–4.80 µg/g creatinine
  Concentration in urine, range: 1.41–9.04 µg/g creatinine
[2]; [10]
  Concentration in urine, median: 31.60 µg/g creatinine
[2]; [11]
  Concentration in urine, IQR: 25.79–52.81 µg/g creatinine
  Concentration in urine, range: 10.68–166.80 µg/g creatinine
[2]; [12]
  Concentration in urine, median: 134.2 µg/g creatinine and 134.15 µg/g creatinine
[2]; [13]
  Concentration in urine, IQR: 92.94–164.89 µg/g creatinine
  Concentration in urine, range: 43.38–380.43 µg/g creatinine
[2]; [14]
  Concentration in urine, median: 131.46 µg/g creatinine
[2]; [15]
  Concentration in urine, IQR: 104.83–207.75 µg/g creatinine
  Concentration in urine, range: 78.66–375.77 µg/g creatinine
[2]; [16]
  Concentration in urine, median: 86.01 µg/g creatinine
[2]; [17]
  Concentration in urine, IQR: 67.60–137.94 µg/g creatinine
  Concentration in urine, range: 46.21–284.21 µg/g creatinine
[2]; [18]
  Concentration in urine, median: 51.58 µg/g creatinine
[2]; [19]
  Concentration in urine, IQR: 40.81–76.67 µg/g creatinine
  Concentration in urine, range: 21.95–159.57 µg/g creatinine
[2]; [20]
  Concentration in urine, median: 46.02 µg/g creatinine
[2]; [21]
  Concentration in urine, IQR: 30.70–63.89 µg/g creatinine
  Concentration in urine, range: 19.82–154.82 µg/g creatinine
[2]; [22]
  Concentration in urine, median: 27.1 µg/g creatinine and 27.08 µg/g creatinine
[2]; [23]
  Concentration in urine, IQR: 20.03–40.28 µg/g creatinine
  Concentration in urine, range: 15.69–139.47 µg/g creatinine
[5]; 20 non-smoking subjects
  Urinary level, median: 4.6 µg/L
[5]; coke oven workers, n = 28, China
  Urinary concentration, GM (GSD): 452 (2.28) µg/l
[5]; control group, n = 22 office and hospital workers including three smokers, China
  Urinary concentration, geometric mean: 38.8 µg/L
[5]; n = 9 smokers
  Urinary concentration, median: 17.1 µg/L
  Urinary concentration, range: 1.9 to 62 µg/L
[5]; wood impregnation workers, n = 9, Germany
  Urinary concentration, median (range): 88.3 (10.8–1497) µg/l
[5]; workers at converter infeed, n = 26, Germany
  Urinary concentration, median (range): 945.4 (22.0–1902.6) µg/l
[5]; workers in the abrasive industry, post-shift Monday, n = 10, Germany
  Urinary concentration, median (range): 3944 (114–42,066) µg/l
[5]; workers in the abrasive industry, post-shift Thursday, n = 10, Germany
  Urinary concentration, median (range): 11,162 (337–51,809) µg/l
